Entries after “also recorded” stand apart in the source; their conditions may differ.
How the values were obtained:
mouse cranial bone = test: cranial bone displacement: AF647-ZOL pre-adsorbed via IV, FAM-ZOL sub-periosteal injection; format: in vivo; details: for signal of pre-adsorbed AF647-ZOL at the FAM-ZOL injection site: AF647-ZOL 100 μl of 50 μM IV 6 days before, increasing dose of FAM-ZOL; for FAM signal on the cranial bone at the injection site: sub-periosteal 10 μl of 0, 1, 10 or 50 μM
Description: FIG. 12A to FIG. 12C show the displacement and replacement of AF647-ZOL and 5-FAM-ZOL. FIG. 12A are fluorescent images of cranial bone. AF647-ZOL (50 μM) was pre-adsorbed on cranial bone via IV injection. 5-FAM-ZOL at the indicated doses was directly injected to the sub-periosteal space. […] The first bars of each set are for AF647-ZOL and the second bars of each set are for 5-FAM-ZOL. *, P<0.05 vs Veh by Dunnett's test.
Mice were pre-treated by 100 μl of 50 μM AF647-ZOL retro-orbital IV injection. Six days later, mice received sub-periosteal injection to cranial bone with 10 μl of 0 μM, 1 μM, 10 μM, or 50 μM FAM-ZOL. The cranial bone was harvested and soft tissues were removed. The fluorescent signals of AF647 and FAM were measured by standardized fluorescent biophotonics. The cranial bones were then prepared for cryosection. Cross-sections were made by the tape method and evaluated by confocal laser scanning microscopy.

[1] = hydroxyapatite (HAP) binding affinity, relative retention times normalized to RIS; details: FIG. 7
Description: FIG. 7 is a bar graph showing hydroxyapatite (HAP) binding affinity of Zoledronate (ZOL), ROX-RIS, 5-FAM-ZOL, and AF647-ZOL. Relative retention times were normalized to RIS.
Hydroxyapatite assays indicate that the FL-BPs generally retain substantial affinity for bone mineral that reflect the affinity of the BP component and to a lesser extent, the affinity of the conjugated fluorophore. Hydroxyapatite (Macro-Prep® Ceramic hydroxyapatite Type II […]) was obtained from Bio-Rad Laboratories, Inc. Hercules, Calif. Accurately weighed hydroxyapatite powder (1.4-1.6 mg) was suspended in a 4 mL clear vial containing the appropriate volume of assay buffer (0.05% (wt/vol) Tween20, 10 μM EDTA and 100 mM HEPES pH=7.4) for 3 hours. Hydroxyapatite was then incubated with increasing amounts of FAM-BP and ROX-BP (0, 25, 50, 100, 200, and 300 μM). Samples were gently shaken for 3 hours at 37° C. in appropriate volume of assay buffer (0.05% (wt/vol) Tween20, 10 μM EDTA and 100 mM HEPES pH=7.4). Subsequent to the equilibrium period, the vials were centrifuged at 10,000 rpm for 5 minutes to separate the solids and the supernatant. 0.3 mL of the supernatant was collected and the equilibrium solution concentration is measured by using Shimadzu UV-VIS spectrometer. For the calibration series, FL-BP probe standards were prepared by serial dilution from the stock solution with the same isotherm buffer to give the range from 0 to 400 μM. Calibration curves were constructed using standard solutions of the target FL-BPs. Fluorescent emission can also be used to calculate the binding parameters. Nonspecific binding was measured with a similar procedure in the absence of hydroxyapatite as control. Binding parameters (Kd and Bmax, represent the equilibrium dissociate constant and maximum number of binding sites, respectively) were calculated using the PRISM program (Graphpad, USA). The binding parameters of each compound was measured in 5 independent experiments. […]

femur trabecular bone = test: micro CT evaluation of pharmacological function of 5-FAM-ZOL in vitamin D deficient rats; format: in vivo; details: vitamin D deficient (VitD (−)) rats; FIG. 13
Description: The pharmacological function of 5-FAM-ZOL was examined in vitamin D deficient (VitD (−)) rats (n=3 in each group). […] Bars are 1.0 mm. *: p<0.05 by Student's t-test.
This study determines the anti-resorptive function of FL-BP in vivo, as compared to ZOL. Female B6 mice were injected with 50 μM ZOL (n=6), 50 μM FL-BP (n=6) or 0.9% NaCl vehicle solution (control: n=6) via tail vein. Three weeks later, mice were euthanized and femur and L4/L5 were harvested. After fixed in 10% buffered formalin, bone samples were subjected to micro CT analysis. The anti-resorptive function were quantitatively established by the trabecular bone three-dimensional morphometry (e.g., BV/TV, Tb.N, Tb.Th, TbSp). FL-BPs with minimal or no pharmacological BP function are used.

mouse maxilla = test: preliminary study: fluorescent imaging of mouse maxilla after 5-FAM-ZOL IV or ROX-RIS intraoral injection; format: in vivo; details: single IV 200 μl of 350 μM; 3 weeks after
Description: In a preliminary study female C57B16/J (B6) mice (8 weeks old) received either a single IV injection via tail vein of 200 μl of 350 μM 5-FAM-ZOL (5-FAM-ZOL, #BV111001, BioVinc LLC, Culver City, Calif.) or a single intraoral injection of 25 μl of 50 μM ROX-RIS (5(6)-ROX-RIS, #BV150101, BioVinc LLC, CA) to gingival/palatal tissue at maxillary left first molar (white arrow in FIG. 11). […], mice were euthanized 3 weeks after the IV injection of 5-FAM-ZOL or 2 days after the intraoral injection of ROX-RIS. Skulls (containing maxilla) were harvested and standardized fluorescent biophotonics image was obtained using an excitation wavelength of 460 nm and the 515 nm filter (LAS3000, FUJIFILM Corp).

O=C(NCC(O)C[n+]1ccn(CC(O)(P(=O)(O)O)P(=O)(O)O)c1)c1ccc(-c2c3ccc(=O)cc-3oc3cc(O)ccc23)c(C(=O)O)c1 (stereo not drawn) [5-FAM-ZOL]
signal of pre-adsorbed AF647-ZOL at the FAM-ZOL injection site (mouse cranial bone): decreased | signal of pre-adsorbed AF647-ZOL at the FAM-ZOL injection site (mouse cranial bone; listed as FAM-ZOL): gradual decrease | AF647-ZOL signal on the external versus internal bone surface after FAM-ZOL injection (mouse cranial bone; cranial bone cryo-cross sections): disproportionately reduced | FAM signal on the cranial bone at the injection site (mouse cranial bone): increased with increasing injection dose | FAM signal on the cranial bone at the injection site (mouse cranial bone; listed as FAM-ZOL): dose dependent increase | location of FAM-ZOL signal in cranial bone (mouse cranial bone; sub-periosteal injection, cryo-cross sections): primarily on the external bone surface | influence of the fluorophore on hydroxyapatite affinity [1]: small reduction | pharmacological (anti-resorptive) function (femur trabecular bone): exhibited pharmacological function; also recorded: effectively blocked catabolic bone remodeling | fluorescent signal in maxilla and zygomatic arch (mouse maxilla): Strong and relatively uniform green fluorescent signal

Source: US11400104B2, “Skeletal removal of bisphosphonates” (The Regents of the University of California, priority 2016, dated 2022)
